Test results from ChEMBL document CHEMBL5385972, “New azole derivatives linked to indole/indoline moieties combined with FLC against drug-resistant Candida albicans” (2024).
In brackets after ≈: the same amount, converted by molar mass. Activity calls are given as the source filed them. The rule behind the calls is not given here.

What was measured:
[1] = test system: Candida albicans; experiment: Synergistic antifungal activity against FLC-resistant Candida albicans SC5314 assessed as inhibition of fungal growth incubated for 24 hrs in presence of fluconazole by microdilution assay; format: functional
[2] = test system: Candida albicans; experiment: Synergistic antifungal activity against Candida albicans SC5314 assessed as fractional inhibitory concentration index incubated for 24 hrs in presence of fluconazole by microdilution assay; format: functional
[3] = test system: Candida albicans; experiment: Antifungal activity against Candida albicans SC5314 assessed as inhibition of fungal growth incubated for 24 hrs by microdilution assay; format: functional
[4] = test system: Candida albicans; experiment: Synergistic antifungal activity against Candida albicans SC5314 assessed as inhibition of fungal growth incubated for 24 hrs in presence of fluconazole by microdilution assay; format: functional
[5] = test system: Candida albicans; experiment: Synergistic antifungal activity against FLC-resistant Candida albicans SC5314 assessed as fractional inhibitory concentration index incubated for 24 hrs in presence of fluconazole by microdilution assay; format: functional
[6] = test system: Candida albicans; experiment: Synergistic antifungal activity against Candida albicans SC5314 assessed as decrease in intracellular mitochondrial membrane potential incubated for 16 hrs in presence of fluconazole by JC-1 staining based fluorescence assay; format: functional, organism-based
[7] = test system: Cell membrane; experiment: Induction of […] membrane permeabilization in Candida albicans SC5314 by measuring red fluorescence incubated for 16 to 24 hrs in presence of fluconazole by propyl iodide dye based multifunctional microplate reader analysis; format: subcellular; conditions: time 16-24 hrs
[8] = test system: Candida albicans; experiment: Synergistic antifungal activity against Candida albicans SC5314 assessed as increase in intracellular ROS production incubated for 16 hrs in presence of fluconazole by DCFH-DA staining based ELISA; format: functional, organism-based
[9] = test system: Candida albicans; experiment: Synergistic antifungal activity against Candida albicans SC5314 assessed as appearance of incomplete cell wall structure incubated for 24 hrs in presence of fluconazole by transmission electron microscopic analysis; format: functional, organism-based
[10] = test system: Candida albicans; experiment: Antifungal activity against FLC-resistant Candida albicans SC5314 assessed as inhibition of fungal growth at 3 to 9 ug/ml incubated for 48 hrs by time-kill assay; format: functional, organism-based; conditions: dose 3-9 µg/ml
[11] = test system: Candida albicans; experiment: Antifungal activity against Candida albicans SC5314 assessed as decrease in mycelial growth at 3 to 9 ug/ml incubated for 24 hrs by crystal violet staining based inverted microscopic analysis; format: functional, organism-based; conditions: dose 3-9 µg/ml
[12] = test system: Candida albicans; experiment: Synergistic antifungal activity against FLC-resistant Candida albicans SC5314 assessed as inhibition of fungal growth incubated for 48 hrs in presence of fluconazole by time-kill assay; format: functional, organism-based
[13] = test system: Candida albicans; experiment: Synergistic antifungal activity against Candida albicans SC5314 assessed as reduction in ATP production incubated for 16 hrs in presence of fluconazole by chemiluminescence assay; format: functional, organism-based
[14] = test system: Cell membrane; experiment: Induction of […] membrane permeabilization in Candida albicans SC5314 by measuring red fluorescence incubated for 16 to 24 hrs in presence of fluconazole by propyl iodide dye based fluorescence microscopic analysis; format: subcellular; conditions: time 16-24 hrs
[15] = test system: Candida albicans; experiment: Antifungal activity against Candida albicans SC5314 assessed as inhibition of fungal growth at 3 to 9 ug/ml incubated for 24 hrs by crystal violet staining based inverted microscopic analysis; format: functional, organism-based; conditions: dose 3-9 µg/ml
[16] = test system: Cell membrane; experiment: Induction of […] membrane permeabilization in Candida albicans SC5314 by measuring red fluorescence at 3 to 9 ug/ml incubated for 16 to 24 hrs by propyl iodide dye based fluorescence microscopic analysis; format: subcellular; conditions: dose 3-9 µg/ml, time 16-24 hrs
[17] = test system: Candida albicans; experiment: Antifungal activity against Candida albicans SC5314 assessed as morphological change at 3 to 9 ug/ml incubated for 24 hrs by transmission electron microscopic analysis; format: functional, organism-based; conditions: dose 3-9 µg/ml
[18] = test system: Candida albicans; experiment: Synergistic antifungal activity against Candida albicans SC5314 assessed as leakage of intracellular debris incubated for 24 hrs in presence of fluconazole by transmission electron microscopic analysis; format: functional, organism-based
[19] = test system: Candida albicans; experiment: Inhibition of mitochondrial function in Candida albicans SC5314 assessed as reduction in ATP production at 3 to 9 ug/ml incubated for 16 hrs by chemiluminescence assay; format: functional; conditions: dose 3-9 µg/ml
[20] = test system: Candida albicans; experiment: Antifungal activity against Candida albicans SC5314 assessed as morphological change at 3 ug/ml incubated for 24 hrs by transmission electron microscopic analysis; format: functional, organism-based; conditions: dose 3.0 µg/ml
[21] = test system: Candida albicans; experiment: Antifungal activity against FLC-resistant Candida albicans SC5314 assessed as inhibition of fungal growth incubated for 24 hrs by microdilution assay; format: functional
[22] = test system: Candida albicans; experiment: Antifungal activity against FLC-resistant Candida albicans SC5314 assessed as inhibition of fungal growth at 3 ug/ml incubated for 48 hrs by time-kill assay; format: functional, organism-based; conditions: dose 3.0 µg/ml
[23] = test system: Candida albicans; experiment: Inhibition of mitochondrial function in Candida albicans SC5314 assessed as reduction in ATP production at 3 ug/ml incubated for 16 hrs by chemiluminescence assay; format: functional; conditions: dose 3.0 µg/ml
[24] = test system: Cell membrane; experiment: Induction of […] membrane permeabilization in Candida albicans SC5314 by measuring red fluorescence at 3 ug/ml incubated for 16 to 24 hrs by propyl iodide dye based fluorescence microscopic analysis; format: subcellular; conditions: dose 3.0 µg/ml, time 16-24 hrs

SMILES | MIC50 [1] | fractional inhibitory concentration index (FICI) [2] | MIC50 [3] | MIC50 [4] | fractional inhibitory concentration index (FICI) [5] | also measured
O=C(CCN1CCc2ccccc21)NCCNCC(O)COC(Cn1cncn1)c1ccc(F)cc1F (stereo not given) | 42.6 µg/mL | 4.34 | > 200 µg/mL | 5.84 µg/mL | 0.21 | –
COc1ccc2c(c1)N(CCC(=O)NCCNCC(O)COC(Cn1cncn1)c1ccc(F)cc1F)CC2 (stereo not given) | 111 µg/mL | 8.64 | > 200 µg/mL | 11.6 µg/mL | 0.56 | –
O=C(CCN1CCc2ccc(F)cc21)NCCNCC(O)COC(Cn1cncn1)c1ccc(F)cc1F (stereo not given) | 18.9 µg/mL | 1.99 | > 200 µg/mL | 2.68 µg/mL | 0.09 | –
O=C(CCn1ccc2ccc(Br)cc21)NCCNCC(O)COC(Cn1cncn1)c1ccc(F)cc1F (stereo not given) | 11.5 µg/mL | 0.71 | > 200 µg/mL | 0.95 µg/mL | 0.06 | –
O=C(CCn1ccc2cc(Br)ccc21)NCCNCC(O)COC(Cn1cncn1)c1ccc(F)cc1F (stereo not given) | 12.9 µg/mL | 0.63 | > 200 µg/mL | 0.85 µg/mL | 0.06 | –
O=C(CCN1CCc2cc(Br)ccc21)NCCNCC(O)COC(Cn1cncn1)c1ccc(F)cc1F (stereo not given) | 2.82 µg/mL | 0.85 | > 200 µg/mL | 1.14 µg/mL | 0.01 | Activity [6]: Dose-Dependent Effect; Activity [7]: Dose-Dependent Effect; Activity [8]: Dose-Dependent Effect; Activity [9]: Dose-Dependent Effect; Activity [10]: inactive; Activity [11]: inactive; Activity [12]: Dose-Dependent Effect; Activity [13]: Dose-Dependent Effect; Activity [14]: Dose-Dependent Effect; Activity [15]: inactive; Activity [16]: inactive; Activity [17]: inactive; Activity [18]: Dose-Dependent Effect; Activity [19]: inactive
O=C(CCn1ccc2cc(Cl)ccc21)NCCNCC(O)COC(Cn1cncn1)c1ccc(F)cc1F (stereo not given) | 18.9 µg/mL | 0.62 | > 200 µg/mL | 0.83 µg/mL | 0.09 | –
O=C(CCN1CCc2cc(Cl)ccc21)NCCNCC(O)COC(Cn1cncn1)c1ccc(F)cc1F (stereo not given) | 14 µg/mL | 1.31 | > 200 µg/mL | 1.77 µg/mL | 0.07 | –
OC(Cn1cncn1)(Cn1cncn1)c1ccc(F)cc1F [FLUCONAZOLE] | – | – | 1.35 µg/mL (≈ 4.41 µM) | – | – | Activity [20]: Active; MIC50 [21]: > 200 µg/mL; Activity [22]: Active; Activity [23]: inactive; Activity [24]: Active
CC1Cc2ccccc2N1CCC(=O)NCCNCC(O)COC(Cn1cncn1)c1ccc(F)cc1F (stereo not given) | 67.7 µg/mL | 6.85 | > 200 µg/mL | 9.22 µg/mL | 0.34 | –
O=C(CCn1ccc2ccc(F)cc21)NCCNCC(O)COC(Cn1cncn1)c1ccc(F)cc1F (stereo not given) | 33.9 µg/mL | 0.59 | > 200 µg/mL | 0.79 µg/mL | 0.17 | –
O=C(CCN1CCc2ccc(Br)cc21)NCCNCC(O)COC(Cn1cncn1)c1ccc(F)cc1F (stereo not given) | 8.92 µg/mL | 0.44 | > 200 µg/mL | 0.6 µg/mL | 0.04 | –
O=C(CCn1ccc2ccc(Cl)cc21)NCCNCC(O)COC(Cn1cncn1)c1ccc(F)cc1F (stereo not given) | 20 µg/mL | 0.66 | > 200 µg/mL | 0.89 µg/mL | 0.1 | –
COc1ccc2ccn(CCC(=O)NCCNCC(O)COC(Cn3cncn3)c3ccc(F)cc3F)c2c1 (stereo not given) | 52.5 µg/mL | 1.39 | > 200 µg/mL | 1.87 µg/mL | 0.26 | –
O=C(CCN1CCc2ccc(Cl)cc21)NCCNCC(O)COC(Cn1cncn1)c1ccc(F)cc1F (stereo not given) | 9.22 µg/mL | 0.26 | > 200 µg/mL | 0.35 µg/mL | 0.05 | –
O=C(CCn1ccc2ccccc21)NCCNCC(O)COC(Cn1cncn1)c1ccc(F)cc1F (stereo not given) | 50 µg/mL | 6.26 | > 200 µg/mL | 8.42 µg/mL | 0.25 | –
Cc1ccc2c(c1)CCN2CCC(=O)NCCNCC(O)COC(Cn1cncn1)c1ccc(F)cc1F (stereo not given) | 10.2 µg/mL | 1.51 | > 200 µg/mL | 2.03 µg/mL | 0.05 | –
